Measurements as given in patent publication US10899741B2, “3,4-bipyridyl pyrazole derivative, and preparation method therefor and medical application thereof” (Jiangsu Hengrui Medicine Co., Ltd., priority 2016, dated 2021).
One block for each compound: values may come before it.

Columns and labels:
[1] = tested on: Smad signaling pathway of TGFβRI; assay: Inhibition of Smad signaling pathway of TGFβRI (3TP-lux luciferase reporter in HepG2 cells); type: cell-based; details: HepG2, 3TP-lux plasmid, 18 hours; for IC50: Homo sapiens
Experimental: The inhibition effect of the compounds of the present invention on Smad signaling pathway of TGFβRI was determined by the following in vitro test.
The inhibition effect of the compounds of the present invention on Smad signaling pathway of TGFβRI was determined by the following experimental method:
On a 96-well plate, 100 μL of HepG2 cell (TCHu 72, Cell Bank of Typical Culture Collection Committee of Chinese Academy of Sciences) was seeded on an EMEM medium containing 10% FBS (42360-099, Gibco) in each well. The seeding density is 2.5×10^4 cells/well. The cells were incubated overnight at 37° C., in 5% CO2. Each well was replaced with fresh EMEM medium containing 10% FBS. 0.1 μg of 3TP-lux plasmid (11767, Biovector Science Lab, Inc.) was transfected in each well. The cells were further incubated for 24 hours at 37° C., in 5% CO2. Each well was replaced with 90 μL of EMEM medium containing 0.5% FBS, then the cells were starved for 6 hours. The compounds were formulated as a 20 mM stock solution, which was diluted in gradient to a 400× concentration with 100% DMSO, and further 40-fold diluted with EMEM containing 0.5% FBS. The cell culture plate was taken out, then 10 μl of diluted compound or control (0.25% DMSO) was added to each well respectively. The plate was shaken gently, then incubated for 18 hours in an incubator at 37° C., in 5% CO2. Finally, 100 μl of detection reagent ONE-Glo™ Luciferase Assay (E6110, Promega) was added to each well, and the plate was placed in dark at room temperature for 10 minutes. The chemiluminescence signal values were measured with a Victor 3.0 (PerkinElmer). The IC50 values of the compounds were calculated using Graphpad Prism software based on each concentration of the compound and the corresponding signal value thereof.

TGFβRI kinase ALK5 = TGFβRI kinase ALK5 (Homo sapiens (Human), UniProt P36897); assay: Inhibition of TGFβRI kinase ALK5 activity (ADP-Glo kit); type: biochemical; details: ATP 50 μM, 27° C. 2.5 hours
Experimental: The inhibition effect of TGFβRI kinase activity in vitro was determined by the following method.
The inhibition effect of the compounds of the present invention on TGFβRI kinase ALK5 activity was determined by the following experimental method:
TGFβRI kinase assay kit (V4093, Promega) was used to assay enzyme activity. 2 μl of enzyme solution (the final concentration of enzyme in the reaction system was 2 ng/μL) formulated with reaction buffer (40 mM Tris pH 7.5, 20 mM MgCl2, 0.1 mg/ml BSA), 1 μl of a 3-fold gradient dilution of the compounds dissolved in 5% DMSO, and 2 μl of a mixed solution of ATP and TGFβRI substrate peptide (the final concentration of ATP was 50 μM, and the final concentration of substrate was 0.2 μg/μL) were added successively to a 384-well plate (4514, Corning). After reaction at 27° C. for 2.5 hours, 5 μl of ADP-Glo solution in the kit was added to each well, then the plate was placed at 27° C. for 40 minutes. 10 μl of kinase assay reagent was then added to each well, then the plate was placed at 27° C. for 30 minutes. The chemiluminescence signal values were measured with a Victor 3 (PerkinElmer) multi-function microplate reader. The IC50 values of the compounds for enzyme inhibition were calculated using Graphpad prism software based on each concentration of the compound and the corresponding signal value thereof.

NIH3T3 cell = assay: Inhibition of NIH3T3 cell proliferation (CellTiter-Glo); type: cell-based; details: NIH3T3, 72 hours, 0.5% FBS; for IC50: Mus musculus
Experimental: The inhibition effect of the compounds of the present invention on NIH3T3 cell proliferation was determined by the following in vitro test.
The inhibition effect of the compounds of the present invention on NIH3T3 cell proliferation was determined by the following experimental method:
On a 96-well white plate with transparent bottom (3903, Corning), 100 μL of NIH3T3 cell (GNM6, Cell Bank of Typical Culture Collection Committee of Chinese Academy of Sciences) was seeded in a DMEM medium containing 10% FBS (SH1-30243.01, GE) in each well. The seeding density is 2000 cells/well. The cells were incubated overnight at 37° C., in 5% CO2. After overnight incubation, each well was replaced with 90 μL of DMEM medium containing 0.5%0 FBS. 10 μl of a 3-fold gradient dilution of the compounds with DMEM medium containing 0.5% FBS was then added, and the plate was incubated for 72 hours in a cell incubator at 37° C., in 5% CO2. Finally, 50 μL of CellTiter-Glo (G7573, Promega) was added to each well. After incubation for 10 minutes at room temperature, the chemiluminescence signal values were measured with a Victor 3 microplate reader (PerkinElmer). The IC50 values of the compounds were calculated using Graphpad Prism software based on each concentration of the compound and the corresponding signal value thereof.

Sequence of TGFβRI kinase ALK5 (P36897 34-503): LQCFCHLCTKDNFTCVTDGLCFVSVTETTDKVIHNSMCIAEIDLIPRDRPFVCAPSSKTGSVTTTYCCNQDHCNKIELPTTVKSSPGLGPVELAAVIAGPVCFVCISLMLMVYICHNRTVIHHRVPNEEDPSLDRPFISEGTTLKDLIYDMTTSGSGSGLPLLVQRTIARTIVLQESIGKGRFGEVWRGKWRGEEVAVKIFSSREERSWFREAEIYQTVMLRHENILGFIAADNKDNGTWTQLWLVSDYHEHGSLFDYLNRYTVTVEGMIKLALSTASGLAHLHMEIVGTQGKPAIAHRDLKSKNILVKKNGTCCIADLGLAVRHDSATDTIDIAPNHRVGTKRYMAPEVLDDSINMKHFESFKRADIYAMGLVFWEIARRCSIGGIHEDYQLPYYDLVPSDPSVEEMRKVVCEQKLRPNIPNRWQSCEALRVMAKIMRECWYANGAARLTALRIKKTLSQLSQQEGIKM

IC50 [1]: 0.168 µM
SMILES: Cc1cccc(-c2nn(C3CC3)cc2-c2ccnc(-c3ccc(C#N)cc3)c2)n1 [Example 7, 4-(4-(1-Cyclopropyl-3-(6-methylpyridin-2-yl)-1H-pyrazol-4-yl)pyridin-2-yl)benzonitrile]
Maximum inhibition rate (%) [1]: 98%

SMILES: Cc1cccc(-c2nn([C@@H]3CCN(S(C)(=O)=O)C3)cc2-c2ccnc(-c3ccc(S(C)(=O)=O)cc3)c2)n1 [Example 8, (R)-4-(3-(6-Methylpyridin-2-yl)-1-(1-(methylsulfonyl)pyrrolidin-3-yl)-1H-pyrazol-4-yl)-2-(4-(methylsulfonyl)phenyl)pyridine]
IC50 (TGFβRI kinase ALK5): 0.37 µM
IC50 (NIH3T3 cell): 0.49 µM
Maximum inhibition rate (%) (NIH3T3 cell): 114%
Maximum inhibition rate (%) [1]: 98%
IC50 [1]: 0.218 µM

SMILES: Cc1cccc(-c2nn(C3CCCC3)cc2-c2ccnc(-c3ccc(S(C)(=O)=O)cc3)c2)n1 [Example 3, 4-(1-Cyclopentyl-3-(6-methylpyridin-2-yl)-1H-pyrazol-4-yl)-2-(4-(methylsulfonyl)phenyl)pyridine]
IC50 (TGFβRI kinase ALK5): 0.241 µM
IC50 (NIH3T3 cell): 0.366 µM
Maximum inhibition rate (%) (NIH3T3 cell): 105%
Maximum inhibition rate (%) [1]: 101%
IC50 [1]: 0.057 µM
